Experimental data reported in PubChem BioAssay (NCI).
Where “and” joins values, the source holds several entries; their conditions need not be identical. Equal values may be shown once.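 Results reflect a 48-hour exposure of cells in 96-well plates to compound at five concentrations. The concentration for 50% growth inhibition is given as GI50. TGI: total growth inhibition.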

Experiments:
Test in all cases: NCI tumour cell line growth inhibition, 48 h
[1] = system: 786-0 renal
[2] = system: A498 renal
[3] = system: A549 NSCLC
[4] = system: ACHN renal
[5] = system: BT-549 breast
[6] = system: CAKI-1 renal
[7] = system: CCRF-CEM leukemia
[8] = system: COLO 205 colon
[9] = system: DU-145 prostate
[10] = system: EKVX NSCLC
[11] = system: HCC-2998 colon
[12] = system: HCT-116 colon
[13] = system: HCT-15 colon
[14] = system: HL-60(TB) leukemia
[15] = system: HOP-62 NSCLC
[16] = system: HOP-92 NSCLC
[17] = system: HS 578T breast
[18] = system: HT29 colon
[19] = system: IGROV1 ovarian
[20] = system: K-562 leukemia
[21] = system: KM12 colon
[22] = system: LOX IMVI melanoma
[23] = system: M14 melanoma
[24] = system: MALME-3M melanoma
[25] = system: MCF7 breast
[26] = system: MDA-MB-231 breast
[27] = system: MDA-MB-435
[28] = system: MOLT-4 leukemia
[29] = system: NCI-H226 lung
[30] = system: NCI-H23 lung
[31] = system: NCI-H460 lung
[32] = system: NCI-H522 lung
[33] = system: NCI/ADR-RES ovarian
[34] = system: OVCAR-3 ovarian
[35] = system: OVCAR-4 ovarian
[36] = system: OVCAR-5 ovarian
[37] = system: OVCAR-8 ovarian
[38] = system: PC-3 prostate
[39] = system: RPMI-8226 leukemia
[40] = system: RXF 393 renal
[41] = system: SF-268 CNS
[42] = system: SF-295 CNS
[43] = system: SF-539 CNS
[44] = system: SK-MEL-2 melanoma
[45] = system: SK-MEL-28 melanoma
[46] = system: SK-MEL-5 melanoma
[47] = system: SK-OV-3 ovarian
[48] = system: SN12C renal
[49] = system: SNB-19 CNS
[50] = system: SR leukemia
[51] = system: SW-620 colon
[52] = system: T-47D breast
[53] = system: TK-10 renal
[54] = system: U251 CNS
[55] = system: UACC-257 melanoma
[56] = system: UACC-62 melanoma
[57] = system: UO-31 renal

In the case of `CO/N=C/C=C\C(=O)N/C=C/C[C@H]1/C=C/[C@H](O)/C=C\C=C\c2cccc(O)c2C(=O)O1`, the GI50 [1] is reported as 54 nM and 125 nM, the TGI [1] is reported as 15600 nM and 4030 nM and the GI50 [2] is reported as 722 nM. The TGI [2] was 5420 nM, the GI50 [3] was 111 nM and 82.2 nM and the TGI [3] was greater than 100000 nM. The GI50 [4] was 39 nM and 54.2 nM, the TGI [4] was 15700 nM and 15200 nM and the GI50 [5] was < 19.7 nM and 24.7 nM. For the same compound, the TGI [5] was 5960 nM and 32900 nM, the GI50 [6] was less than 10 nM and the GI50 [7] was 62.1 nM and 62.2 nM. For the same compound, the TGI [7] was greater than 77000 nM, the GI50 [8] was 26.6 nM and 32.6 nM and the TGI [8] was 16000 nM and 14100 nM. For the same compound, the GI50 [9] was 81.6 nM and 41.3 nM, the TGI [9] was > 54000 nM and 22900 nM and the GI50 [10] was 189 nM and 467 nM. For the same compound, the TGI [10] was greater than 100000 nM, the GI50 [11] was 430 nM and 208 nM and the TGI [11] was 31000 nM and 7540 nM. The GI50 [12] was < 10 nM and 20.7 nM, the TGI [12] was 12800 nM and 12900 nM and the GI50 [13] was 62.4 nM and 44.7 nM. The TGI [13] was 9700 nM and 7340 nM, the GI50 [14] was 20.8 nM and 37.3 nM and the GI50 [15] was 266 nM and 65.9 nM. The GI50 [16] was < 10 nM and 19 nM, the TGI [16] was 74.5 nM and 492 nM and the GI50 [17] was 454 nM and 199 nM. The TGI [17] was greater than 100000 nM, the GI50 [18] was < 10 nM and 39.5 nM and the TGI [18] was 11200 nM and > 33700 nM. For the same compound, the GI50 [19] was < 10 nM and 12.9 nM, the TGI [19] was > 49000 nM and 30900 nM and the GI50 [20] was 27.5 nM and 35.8 nM. The TGI [20] was greater than 100000 nM, the GI50 [21] was 40.7 nM and 52 nM and the TGI [21] was 17200 nM and 15100 nM. The GI50 [22] was less than 10 nM, the TGI [22] was 16 nM and the GI50 [23] was < 10 nM and 15.2 nM. The TGI [23] was 119 nM and 136 nM, the GI50 [24] was 114 nM and 89.9 nM and the TGI [24] was 5880 nM and 10600 nM. The GI50 [25] was 99.7 nM and 58.1 nM, the TGI [25] was > 100000 nM and 26700 nM and the GI50 [26] was less than 10 nM. The TGI [26] was 6640 nM, the GI50 [27] was 36.8 nM and 37 nM and the TGI [27] was 1960 nM and 482 nM. For the same compound, the GI50 [28] was 43.9 nM and 79 nM, the TGI [28] was 14000 nM and 23500 nM and the GI50 [29] was 829 nM and 1310 nM. The TGI [29] was 13300 nM and 25800 nM, the GI50 [30] was 2650 nM and 463 nM and the TGI [30] was > 100000 nM and 36100 nM. The GI50 [31] was 36.4 nM and 58.3 nM, the TGI [31] was 11100 nM and 5340 nM and the GI50 [32] was 17.6 nM and 31.1 nM. The TGI [32] was 14300 nM and 7120 nM, the GI50 [33] was 139 nM and 77.1 nM and the TGI [33] was greater than 100000 nM. The GI50 [34] was 457 nM and 653 nM, the TGI [34] was 23800 nM and 27300 nM and the GI50 [35] was 17300 nM and 2740 nM. For the same compound, the TGI [35] was greater than 100000 nM, the GI50 [36] was < 11 nM and 32.6 nM and the TGI [36] was 14400 nM and > 54400 nM. The GI50 [37] was 19.1 nM and 33 nM, the TGI [37] was greater than 100000 nM and the GI50 [38] was 94.6 nM and 47.7 nM. The TGI [38] was 81400 nM and > 54900 nM, the GI50 [39] was 26.5 nM and 30.9 nM and the TGI [39] was 6800 nM and 2210 nM. The GI50 [40] was 931 nM and 108 nM, the TGI [40] was 34500 nM and 12900 nM and the GI50 [41] was 204 nM and 137 nM. For the same compound, the TGI [41] was > 100000 nM and 33800 nM, the GI50 [42] was 22.9 nM and 19.8 nM and the TGI [42] was 117 nM and 84.5 nM. For the same compound, the GI50 [43] was 46 nM and 51.4 nM, the TGI [43] was 4200 nM and 1830 nM and the GI50 [44] was 118 nM and 138 nM. For the same compound, the TGI [44] was 1060 nM and 1760 nM, the GI50 [45] was 303 nM and 309 nM and the TGI [45] was 13400 nM and 8660 nM. The GI50 [46] was less than 10 nM, the TGI [46] was < 11.3 nM and 20.4 nM and the TGI [47] was greater than 100000 nM. The GI50 [48] was < 17.6 nM and 16.5 nM, the TGI [48] was greater than 72900 nM and the GI50 [49] was 2810 nM and 3470 nM. The TGI [49] was greater than 100000 nM, the GI50 [50] was less than 10 nM and the TGI [50] was 13800 nM and > 100000 nM. For the same compound, the GI50 [51] was 43.3 nM and 62.8 nM, the TGI [51] was 12400 nM and 11300 nM and the GI50 [52] was < 10 nM and 27.3 nM. The TGI [52] was 64700 nM and > 71700 nM, the TGI [53] was 45100 nM and > 100000 nM and the GI50 [54] was 100 nM and 28.7 nM. The TGI [54] was 62100 nM and 14700 nM, the GI50 [55] was 24.8 nM and 49.3 nM and the TGI [55] was 659 nM and 4170 nM. The GI50 [56] was < 14.8 nM and 22 nM, the TGI [56] was 79.5 nM and 60.5 nM and the GI50 [57] was 61 nM and 92.5 nM. For the same compound, the TGI [57] was 455 nM and 1230 nM.
